Reference: article PMC10179972, “New Hybrid Tetrahydropyrrolo[3,2,1-ij]quinolin-1-ylidene-2-thioxothiazolidin-4-ones as New Inhibitors of Factor Xa and Factor XIa: Design, Synthesis, and In Silico and Experimental Evaluation” (Molecules, 2023)

Experiments:
[1] = target: T1, factor Xa (Homo sapiens, UniProt P00742); test: Inhibition of factor Xa, kinetics of hydrolysis of chromogenic substrate S2765; assay type: biochemical; conditions: for inhibition at 30 µM: 30 μM compound, factor Xa 2.5 nmol/L, S2765 200 μmol/L, pH 8.0, read-out: Percent Inhibition at 30 μM, Xa; for IC50: substrate S2765, buffer solution
T1 construct: followed by the addition of factor Xa (final concentration, 2.5 nmol·L^–1)
Procedure: We measured the kinetics of the hydrolysis of the specific substrates S2765 or S2366 by factors Xa and XIa, respectively, in the buffer solution and in the presence of various concentrations of compounds.
(§1) A specific low-molecular-weight chromogenic substrate, S2765 (Z-D-Arg-Gly-Arg-pNA·2HCl), was used in the case of factor Xa, while the substrate S2366 (pyroGlu-Pro-ArgpNA·HCl) (both substrates from Chromogenix, USA) was used for factor XIa.
A buffer containing 140 mM NaCl, 20 mM HEPES, and 0.1% PEG 6000 (pH 8.0) was placed in the wells of a 96-well plate, followed by the addition of factor Xa (final concentration, 2.5 nmol·L^–1) or XIa (final concentration 0.8 nmol·L^–1), the substrate S2765 (final concentration, 200 μmol·L^–1) or S2366 (final concentration, 200 μmol·L^–1), and a solution of the test compound in DMSO (final concentration, 30 μmol·L^–1; the DMSO content in the well was no more than 2%). […] The initial rate of substrate degradation was determined from the initial slope of the 4-nitroaniline-formation curve. The rate of substrate degradation by the enzyme in the presence of the inhibitor was expressed as a percentage relative to the rate of substrate degradation in the absence of the inhibitor. The data obtained were processed using GraphPad Prism and OriginPro 8 software.

[2] = target: factor XIa (Homo sapiens, UniProt P03951); test: Inhibition of factor XIa, kinetics of hydrolysis of chromogenic substrate S2366; assay type: biochemical; conditions: for inhibition at 30 µM: 30 μM compound, factor XIa 0.8 nmol/L, S2366 200 μmol/L, pH 8.0, read-out: Percent Inhibition at 30 μM, XIa; for IC50: substrate S2366, buffer solution
Procedure: Compounds 12, 14 and 16 were evaluated for their anticoagulant activity against factors Xa and Xia, and the results are presented in Table 1. For the best Xa and XIa inhibitors, additional measurements were performed to determine the IC50 values. We measured the kinetics of the hydrolysis of the specific substrates S2765 or S2366 by factors Xa and XIa, respectively, in the buffer solution and in the presence of various concentrations of compounds.
as §1
A buffer containing 140 mM NaCl, 20 mM HEPES, and 0.1% PEG 6000 (pH 8.0) was placed in the wells of a 96-well plate, followed by the addition of factor Xa (final concentration, 2.5 nmol·L^–1) or XIa (final concentration 0.8 nmol·L^–1), the substrate S2765 (final concentration, 200 μmol·L^–1) or S2366 (final concentration, 200 μmol·L^–1), and a solution of the test compound in DMSO (final concentration, 30 μmol·L^–1; the DMSO content in the well was no more than 2%). The kinetics of the formation of p-nitroaniline were measured using a THERMOmax Microplate Reader (Molecular Devices Corporation, USA) using the absorption of light with a wavelength of 405 nm. The initial rate of substrate degradation was determined from the initial slope of the 4-nitroaniline-formation curve. The rate of substrate degradation by the enzyme in the presence of the inhibitor was expressed as a percentage relative to the rate of substrate degradation in the absence of the inhibitor. The data obtained were processed using GraphPad Prism and OriginPro 8 software.

T1 sequence (P00742 235-488 limits assumed): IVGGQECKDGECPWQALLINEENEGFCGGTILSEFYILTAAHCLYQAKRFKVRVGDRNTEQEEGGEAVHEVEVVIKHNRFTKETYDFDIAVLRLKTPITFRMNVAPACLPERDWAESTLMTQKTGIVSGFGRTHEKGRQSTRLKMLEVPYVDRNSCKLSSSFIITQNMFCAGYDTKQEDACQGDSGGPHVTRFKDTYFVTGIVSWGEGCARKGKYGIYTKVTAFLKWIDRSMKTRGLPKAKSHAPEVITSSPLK
T1 sequence (P00742 41-179 partner limits assumed): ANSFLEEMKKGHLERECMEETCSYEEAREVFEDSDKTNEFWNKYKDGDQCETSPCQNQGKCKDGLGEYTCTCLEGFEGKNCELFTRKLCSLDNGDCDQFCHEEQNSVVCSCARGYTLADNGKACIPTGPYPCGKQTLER
Chain of factor XIa (P03951 388-625 limits assumed): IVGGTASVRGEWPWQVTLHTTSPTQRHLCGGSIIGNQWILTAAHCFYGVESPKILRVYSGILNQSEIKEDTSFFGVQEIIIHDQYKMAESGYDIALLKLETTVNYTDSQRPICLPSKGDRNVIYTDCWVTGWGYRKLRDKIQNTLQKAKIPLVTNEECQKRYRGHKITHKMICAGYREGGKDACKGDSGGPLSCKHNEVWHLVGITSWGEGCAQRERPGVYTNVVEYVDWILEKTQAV
Chain of factor XIa (P03951 19-387 partner limits assumed): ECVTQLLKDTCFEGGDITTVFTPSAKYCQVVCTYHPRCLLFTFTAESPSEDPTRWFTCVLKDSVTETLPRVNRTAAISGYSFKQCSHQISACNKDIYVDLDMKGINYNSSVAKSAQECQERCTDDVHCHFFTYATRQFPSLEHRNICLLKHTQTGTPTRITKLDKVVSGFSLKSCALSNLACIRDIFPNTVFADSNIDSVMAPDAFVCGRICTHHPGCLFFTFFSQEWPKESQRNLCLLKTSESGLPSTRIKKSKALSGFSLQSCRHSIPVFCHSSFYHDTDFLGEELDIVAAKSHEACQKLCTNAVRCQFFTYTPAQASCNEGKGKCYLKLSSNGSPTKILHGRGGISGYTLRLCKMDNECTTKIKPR

Row | SMILES | inhibition at 30 µM [1] [%] | IC50 [1] [µM] | inhibition at 30 µM [2] [%] | IC50 [2] [µM]
1 | CC1(c2ccccc2)CC(C)(C)N2C(=O)/C(=C3\SC(=S)NC3=O)c3cc(I)cc1c32 (centres unmarked) [12i, (Z)-5-(8-Iodo-4,4,6-trimethyl-2-oxo-6-phenyl-5,6-dihydro-4H-pyrrolo[3,2,1-ij]quinolin-1(2H)-ylidene)-2-thioxothiazolidin-4-one] | 75 | 3.44 ± 0.06 | 96 | 5.04 ± 0.33
2 | CC1(c2ccccc2)CC(C)(C)N2C(=O)/C(=C3\SC(=S)NC3=O)c3cc(Br)cc1c32 (centres unmarked) [12h, (Z)-5-(8-Bromo-4,4,6-trimethyl-2-oxo-6-phenyl-5,6-dihydro-4H-pyrrolo[3,2,1-ij]quinolin-1(2H)-ylidene)-2-thioxothiazolidin-4-one] | 73 | 2.28 ± 0.23 | 98 | 3.73 ± 0.03
3 | C#CCN1C(=O)/C(=C2/C(=O)N3c4c2cc(F)cc4C(C)(c2ccc(Cl)cc2)CC3(C)C)SC1=S (centres unmarked) [14b, (Z)-5-(6-(4-Chlorophenyl)-8-fluoro-4,4,6-trimethyl-2-oxo-5,6-dihydro-4H-pyrrolo[3,2,1-ij]quinolin-1(2H)-ylidene)-3-(prop-2-yn-1-yl)-2-thioxothiazolidin-4-one] | 49 | – | 17 | –
4 | CCN1C(=O)/C(=C2/C(=O)N3c4c2cccc4C(C)(c2ccccc2)CC3(C)C)SC1=S (centres unmarked) [12j, (Z)-3-Ethyl-2-thioxo-5-(4,4,6-trimethyl-2-oxo-6-phenyl-5,6-dihydro-4H-pyrrolo[3,2,1-ij]quinolin-1(2H)-ylidene)thiazolidin-4-one] | 89 | – | 77 | –
5 | CC1CC2(CCCCCC2)N2C(=O)/C(=C3\SC(=S)NC3=O)c3cc(F)cc1c32 (centres unmarked) [12q, (Z)-5-(8′-Fluoro-6′-methyl-2′-oxo-5′,6′-dihydrospiro[cycloheptane-1,4′-pyrrolo[3,2,1-ij]quinolin]-1′(2′H)-ylidene)-2-thioxothiazolidin-4-one] | 47 | – | 91 | 4.32 ± 0.06
6 | CCN1C(=O)/C(=C2/C(=O)N3c4c2cc(F)cc4C(C)(c2ccc(Cl)cc2)CC3(C)C)SC1=S (centres unmarked) [12m, (Z)-5-(6-(4-Chlorophenyl)-8-fluoro-4,4,6-trimethyl-2-oxo-5,6-dihydro-4H-pyrrolo[3,2,1-ij]quinolin-1(2H)-ylidene)-3-ethyl-2-thioxothiazolidin-4-one] | 18 | – | 0 | –
7 | CC1(C)CC2(CCCCC2)N2C(=O)/C(=C3\SC(=S)NC3=O)c3cccc1c32 [12n, (Z)-5-(6′,6′-Dimethyl-2′-oxo-5′,6′-dihydrospiro[cyclohexane-1,4′-pyrrolo[3,2,1-ij]quinolin]-1′(2′H)-ylidene)-2-thioxothiazolidin-4-one] | 94 | 2.6 ± 0.5 | 91 | 9.41 ± 0.51
8 | CCOc1cc2c3c(c1)C(C)CC(C)(C)N3C(=O)/C2=C1\NC(=S)NC1=O (centres unmarked) [16a, (Z)-8-Ethoxy-4,4,6-trimethyl-1-(5-oxo-2-thioxoimidazolidin-4-ylidene)-5,6-dihydro-4H-pyrrolo[3,2,1-ij]quinolin-2(1H)-one] | 2 | – | 6 | –
9 | CC1(c2ccccc2)CC(C)(C)N2C(=O)/C(=C3\NC(=S)NC3=O)c3cc(F)cc1c32 (centres unmarked) [16d, (Z)-8-Fluoro-4,4,6-trimethyl-1-(5-oxo-2-thioxoimidazolidin-4-ylidene)-6-phenyl-5,6-dihydro-4H-pyrrolo[3,2,1-ij]quinolin-2(1H)-one] | 17 | – | 2 | –
10 | COc1cc(C(=O)Oc2cc3c4c(c2)C(C)CC(C)(C)N4C(=O)/C3=C2\SC(=S)NC2=O)cc(OC)c1OC (centres unmarked) [12e, (Z)-4,4,6-Trimethyl-2-oxo-1-(4-oxo-2-thioxothiazolidin-5-ylidene)-1,2,5,6-tetrahydro-4H-pyrrolo[3,2,1-ij]quinolin-8-yl 3,4,5-trimethoxybenzoate] | 49 | – | 94 | 3.74 ± 0.33
11 | Cc1cc2c3c(c1)C(C)CC1(CCCCC1)N3C(=O)/C2=C1\SC(=S)NC1=O (centres unmarked) [12o, (Z)-5-(6′,8′-Dimethyl-2′-oxo-5′,6′-dihydrospiro[cyclohexane-1,4′-pyrrolo[3,2,1-ij]quinolin]-1′(2′H)-ylidene)-2-thioxothiazolidin-4-one] | 48 | – | 15 | –
12 | Cc1cc2c3c(c1)C(C)CC(C)(C)N3C(=O)/C2=C1\NC(=S)NC1=O (centres unmarked) [16b, (Z)-4,4,6,8-Tetramethyl-1-(5-oxo-2-thioxoimidazolidin-4-ylidene)-5,6-dihydro-4H-pyrrolo[3,2,1-ij]quinolin-2(1H)-one] | 31 | – | 5 | –
13 | Cc1cc2c3c(c1)C(C)(c1ccc(Cl)cc1)CC(C)(C)N3C(=O)/C2=C1\NC(=S)NC1=O (centres unmarked) [16e, (Z)-6-(4-Chlorophenyl)-4,4,6,8-tetramethyl-1-(5-oxo-2-thioxoimidazolidin-4-ylidene)-5,6-dihydro-4H-pyrrolo[3,2,1-ij]quinolin-2(1H)-one] | 59 | – | 86 | –
14 | CC1(c2ccc(Cl)cc2)CC(C)(C)N2C(=O)/C(=C3\SC(=S)NC3=O)c3cc(F)cc1c32 (centres unmarked) [12k, (Z)-5-(6-(4-Chlorophenyl)-8-fluoro-4,4,6-trimethyl-2-oxo-5,6-dihydro-4H-pyrrolo[3,2,1-ij]quinolin-1(2H)-ylidene)-2-thioxothiazolidin-4-one] | 99 | 2.85 ± 0.23 | 99 | 5.24 ± 0.29
15 | CC1(c2ccccc2)CC(C)(C)N2C(=O)/C(=C3\NC(=S)NC3=O)c3cccc1c32 (centres unmarked) [16c, (Z)-4,4,6-Trimethyl-1-(5-oxo-2-thioxoimidazolidin-4-ylidene)-6-phenyl-5,6-dihydro-4H-pyrrolo[3,2,1-ij]quinolin-2(1H)-one] | 45 | – | 57 | –
16 | C#CCN1C(=O)/C(=C2/C(=O)N3c4c2cc(F)cc4C(C)(c2ccccc2)CC3(C)C)SC1=S (centres unmarked) [14a, (Z)-5-(8-Fluoro-4,4,6-trimethyl-2-oxo-6-phenyl-5,6-dihydro-4H-pyrrolo[3,2,1-ij]quinolin-1(2H)-ylidene)-3-(prop-2-yn-1-yl)-2-thioxothiazolidin-4-one] | 36 | – | 3 | –
17 | CC1(c2ccccc2)CC(C)(C)N2C(=O)/C(=C3\SC(=S)NC3=O)c3cc(F)cc1c32 (centres unmarked) [12g, (Z)-5-(8-Fluoro-4,4,6-trimethyl-2-oxo-6-phenyl-5,6-dihydro-4H-pyrrolo[3,2,1-ij]quinolin-1(2H)-ylidene)-2-thioxothiazolidin-4-one] | 99 | 3.7 ± 0.03 | 98 | 5.03 ± 0.18
18 | CC1CC(C)(C)N2C(=O)/C(=C3\SC(=S)NC3=O)c3cccc1c32 (centres unmarked) [12a, (Z)-2-Thioxo-5-(4,4,6-trimethyl-2-oxo-5,6-dihydro-4H-pyrrolo[3,2,1-ij]quinolin-1(2H)-ylidene)thiazolidin-4-one] | 94 | 9.41 ± 0.35 | 22 | –
19 | CC1CC2(CCCC2)N2C(=O)/C(=C3\SC(=S)NC3=O)c3cc(F)cc1c32 (centres unmarked) [12p, (Z)-5-(8′-Fluoro-6′-methyl-2′-oxo-5′,6′-dihydrospiro[cyclopentane-1,4′-pyrrolo[3,2,1-ij]quinolin]-1′(2′H)-ylidene)-2-thioxothiazolidin-4-one] | 67 | 3.03 ± 0.18 | 77 | 12.2 ± 0.5
